Consider 30 molecules from US10696693B2, “Fused imidazole derivatives as TGF-beta inhibitors” (Rigel Pharmaceuticals, Inc., priority 2014, dated 2020).

One assay relates to TGF-β. Kind of assay: AlphaScreen SureFire p-SMAD3 (Ser423/425) assay, TGF-β-stimulated cells. Conditions: Mus musculus. The class given is cell-based. In outline:
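The p-SMAD-3 (Ser423/425) SureFire assay measured phosphorylation of endogenous SMAD-3 in cell lysates. Cells were plated overnight in collagen-coated plates, exposed to three-fold serially diluted compounds for about 10 minutes, then stimulated with TGFβ. Lysates (5 μL) received acceptor bead mix for 2 hours, then donor beads for 1½ hours before AlphaScreen reading.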

The test system of the next assay is GDF8. Kind of assay: AlphaScreen SureFire p-SMAD3 (Ser423/425) assay, GDF8-stimulated cells. The class given is cell-based. The conditions noted are these: Mus musculus. In outline:
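A SureFire AlphaScreen assay measured phosphorylation of endogenous SMAD-3 at Ser423/425 in cell lysates. Cells were treated with three-fold serially diluted compounds in DMSO for about 10 minutes, then stimulated with GDF8. After medium removal, cells were lysed in 1× Lysis Buffer (about 25 μL) with gentle shaking for 5-10 minutes.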
For orientation: Bead proximity is the source of the signal in Alpha formats.

Setting [1] is: MPC-11, read-out: TGF-β: inhibition of TGF-β signaling, TGF-β pSMAD (MPC-11), p-SMAD3 (Ser423/425) AlphaScreen in cell lysate, TGF-β stimulation.
Setting [2] is: MPC-11, read-out: GDF8: inhibition of GDF8 signaling, GDF pSMAD (MPC11), p-SMAD3 (Ser423/425) AlphaScreen in cell lysate, GDF8 stimulation.
Where [3] appears, read: p-SMAD3 (Ser423/425) AlphaScreen in cell lysate, MPC-11, TGF-β stimulation, read-out: TGF-β: inhibition of TGF-β signaling, TGF-β pSMAD (MPC-11).
[4] abbreviates: MPC-11, p-SMAD3 (Ser423/425) AlphaScreen in cell lysate, MPC11, GDF8 stimulation, read-out: GDF8: inhibition of GDF8 signaling, GDF pSMAD (MPC11).

Read-outs that look alike come from different tables or passages of the source.

As to `Fc1cc(F)cc(-c2nc3n(c2-c2ccc4cn[nH]c4c2)CCC3)c1` [Compound 231, 6-(2-(3,5-difluorophenyl)-6,7-dihydro-5H-pyrrolo[1,2-a]imidazol-3-yl)-1H-indazole], the IC50 with TGF-β (setting [1]) was above 1000 nM; in the assay on GDF8 (setting [2]), 100 to 1000 nM.
As for `Fc1cc(F)cc(-c2nc3n(c2-c2ccc4ncsc4c2)CCC3)c1` [Compound 232, 6-(2-(3,5-difluorophenyl)-6,7-dihydro-5H-pyrrolo[1,2-a]imidazol-3-yl)benzo[d]thiazole], the results for the IC50 in the assay with TGF-β (setting [1]) and with GDF8 (setting [2]) were above 1000 nM and 100 to 1000 nM, respectively.
Turning to `Fc1cc(F)cc(-c2nc3n(c2-c2ccc4nccnc4c2)CCC3)c1` [Compound 233, 6-(2-(3,5-difluorophenyl)-6,7-dihydro-5H-pyrrolo[1,2-a]imidazol-3-yl)quinoxaline], the IC50 in the assay with TGF-β (setting [1]) and in the assay on GDF8 (setting [2]) was above 1000 nM each time.
Consider `Fc1cc(F)cc(-c2nc3n(c2-c2ccc4ncccc4c2)CCC3)c1` [Compound 234, 6-(2-(3,5-difluorophenyl)-6,7-dihydro-5H-pyrrolo[1,2-a]imidazol-3-yl)quinoline], for which the IC50 in the assay with TGF-β (setting [1]) and in the assay with GDF8 (setting [2]) was above 1000 nM throughout.
`Fc1cc(F)c(F)c(-c2nc3n(c2-c2ccc4ncsc4c2)CCC3)c1` [Compound 235, 6-(2-(2,3,5-trifluorophenyl)-6,7-dihydro-5H-pyrrolo[1,2-a]imidazol-3-yl)benzo[d]thiazole]: the IC50 in the assay with TGF-β (setting [1]) and in the assay with GDF8 (setting [2]) was 100 to 1000 nM each time.
As to `Fc1cc(F)c(F)c(-c2nc3n(c2-c2ccc4[nH]ncc4c2)CCC3)c1` [Compound 236, 5-(2-(2,3,5-trifluorophenyl)-6,7-dihydro-5H-pyrrolo[1,2-a]imidazol-3-yl)-1H-indazole], the IC50 with TGF-β (setting [1]) is above 1000 nM; in the assay on GDF8 (setting [2]) it was 100 to 1000 nM.
For the molecule `Fc1cc(F)c(F)c(-c2nc3n(c2-c2ccc4ncccc4c2)CCC3)c1` [Compound 237, 6-(2-(2,3,5-trifluorophenyl)-6,7-dihydro-5H-pyrrolo[1,2-a]imidazol-3-yl)quinoline], the IC50 is above 1000 nM in the assay with TGF-β (setting [3]) and 100 to 1000 nM in the assay with GDF8 (setting [4]).
On to `Fc1cc(F)c(F)c(-c2nc3n(c2-c2ccc4nccnc4c2)CCC3)c1` [Compound 238, 6-(2-(2,3,5-trifluorophenyl)-6,7-dihydro-5H-pyrrolo[1,2-a]imidazol-3-yl)quinoxaline], for which the IC50 with TGF-β (setting [3]) and with GDF8 (setting [4]) was 100 to 1000 nM each time.
In the case of `Fc1cc(-c2nc3n(c2-c2ccc4[nH]ncc4c2)CCC3)c(F)cc1Cl` [Compound 239, 5-(2-(4-chloro-2,5-difluorophenyl)-6,7-dihydro-5H-pyrrolo[1,2-a]imidazol-3-yl)-1H-indazole], the IC50 with TGF-β (setting [3]) and in the assay with GDF8 (setting [4]) was above 1000 nM in each case.
Regarding `Fc1cc(-c2nc3n(c2-c2ccc4ncsc4c2)CCC3)c(F)cc1Cl` [Compound 240, 6-(2-(4-chloro-2,5-difluorophenyl)-6,7-dihydro-5H-pyrrolo[1,2-a]imidazol-3-yl)benzo[d]thiazole], the IC50 with TGF-β (setting [3]) was above 1000 nM; in the assay with GDF8 (setting [4]), 100 to 1000 nM.
On to `Fc1cc(-c2nc3n(c2-c2ccc4nccnc4c2)CCC3)c(F)cc1Cl` [Compound 241, 6-(2-(4-chloro-2,5-difluorophenyl)-6,7-dihydro-5H-pyrrolo[1,2-a]imidazol-3-yl)quinoxaline], for which the IC50 in the assay with TGF-β (setting [3]) and in the assay with GDF8 (setting [4]) was above 1000 nM in each case.
For `Fc1cc(-c2nc3n(c2-c2ccc4ncccc4c2)CCC3)c(F)cc1Cl` [Compound 242, 6-(2-(4-chloro-2,5-difluorophenyl)-6,7-dihydro-5H-pyrrolo[1,2-a]imidazol-3-yl)quinoline], the IC50 in the assay on TGF-β (setting [3]) and in the assay with GDF8 (setting [4]) was above 1000 nM each time.
Consider `Cc1cc(-c2nc3n(c2-c2ccc4[nH]ncc4c2)CCC3)cc(C)c1Cl` [Compound 243, 5-(2-(4-chloro-3,5-dimethylphenyl)-6,7-dihydro-5H-pyrrolo[1,2-a]imidazol-3-yl)-1H-indazole], for which the IC50 in the assay on TGF-β (setting [3]) and with GDF8 (setting [4]) was above 1000 nM each time.
Consider `Cc1cc(-c2nc3n(c2-c2ccc4ncsc4c2)CCC3)cc(C)c1Cl` [Compound 244, 6-(2-(4-chloro-3,5-dimethylphenyl)-6,7-dihydro-5H-pyrrolo[1,2-a]imidazol-3-yl)benzo[d]thiazole], for which the IC50 in the assay with TGF-β (setting [3]) and in the assay on GDF8 (setting [4]) was above 1000 nM each time.
For `Cc1cc(-c2nc3n(c2-c2ccc4nccnc4c2)CCC3)cc(C)c1Cl` [Compound 245, 6-(2-(4-chloro-3,5-dimethylphenyl)-6,7-dihydro-5H-pyrrolo[1,2-a]imidazol-3-yl)quinoxaline], the IC50 in the assay with TGF-β (setting [3]) and in the assay on GDF8 (setting [4]) was above 1000 nM throughout.
As to `Cc1cc(-c2nc3n(c2-c2ccc4ncccc4c2)CCC3)cc(C)c1Cl` [Compound 246, 6-(2-(4-chloro-3,5-dimethylphenyl)-6,7-dihydro-5H-pyrrolo[1,2-a]imidazol-3-yl)quinoline], the IC50 in the assay with TGF-β (setting [3]) and with GDF8 (setting [4]) was above 1000 nM in each case.
`Fc1cc(-c2nc3n(c2-c2ccc4ncccc4c2)CCC3)cc(F)c1F` [Compound 247, 6-(2-(3,4,5-trifluorophenyl)-6,7-dihydro-5H-pyrrolo[1,2-a]imidazol-3-yl)quinoline]: the IC50 in the assay on TGF-β (setting [3]) is above 1000 nM; in the assay on GDF8 (setting [4]), 100 to 1000 nM.
Turning to `Cc1ccc(-c2nc3n(c2-c2ccc4[nH]ncc4c2)CCC3)c(F)c1F` [Compound 248, 5-(2-(2,3-difluoro-4-methylphenyl)-6,7-dihydro-5H-pyrrolo[1,2-a]imidazol-3-yl)-1H-indazole], the IC50 in the assay on TGF-β (setting [3]) and with GDF8 (setting [4]) was above 1000 nM throughout.
As to `Cc1ccc(-c2nc3n(c2-c2ccc4ncsc4c2)CCC3)c(F)c1F` [Compound 249, 6-(2-(2,3-difluoro-4-methylphenyl)-6,7-dihydro-5H-pyrrolo[1,2-a]imidazol-3-yl)benzo[d]thiazole], the IC50 in the assay with TGF-β (setting [3]) and in the assay with GDF8 (setting [4]) was above 1000 nM each time.
Regarding `Cc1ccc(-c2nc3n(c2-c2ccc4nccnc4c2)CCC3)c(F)c1F` [Compound 250, 6-(2-(2,3-difluoro-4-methylphenyl)-6,7-dihydro-5H-pyrrolo[1,2-a]imidazol-3-yl)quinoxaline], the IC50 in the assay with TGF-β (setting [3]) and in the assay with GDF8 (setting [4]) was above 1000 nM in each case.
Turning to `Cc1ccc(-c2nc3n(c2-c2ccc4ncccc4c2)CCC3)c(F)c1F` [Compound 251, 6-(2-(2,3-difluoro-4-methylphenyl)-6,7-dihydro-5H-pyrrolo[1,2-a]imidazol-3-yl)quinoline], the IC50 with TGF-β (setting [3]) and in the assay with GDF8 (setting [4]) was above 1000 nM in each case.
For the molecule `Cc1cc(-c2nc3n(c2-c2ccc4cn[nH]c4c2)CCC3)c(F)cc1Cl` [Compound 252, 6-(2-(4-chloro-2-fluoro-5-methylphenyl)-6,7-dihydro-5H-pyrrolo[1,2-a]imidazol-3-yl)-1H-indazole], the IC50 in the assay on TGF-β (setting [3]) and in the assay on GDF8 (setting [4]) was above 1000 nM throughout.
Regarding `Cc1cc(-c2nc3n(c2-c2ccc4ncsc4c2)CCC3)c(F)cc1Cl` [Compound 253, 6-(2-(4-chloro-2-fluoro-5-methylpheny)-6,7-dihydro-5H-pyrrolo[1,2-a]imidazol-3-yl)benzo[d]thiazole], the IC50 with TGF-β (setting [3]) and in the assay on GDF8 (setting [4]) was above 1000 nM in each case.
As for `Cc1cc(-c2nc3n(c2-c2ccc4nccnc4c2)CCC3)c(F)cc1Cl` [Compound 254, 6-(2-(4-chloro-2-fluoro-5-methylpheny)-6,7-dihydro-5H-pyrrolo[1,2-a]imidazol-3-yl)quinoxaline], the IC50 in the assay with TGF-β (setting [3]) and in the assay on GDF8 (setting [4]) was above 1000 nM throughout.
As to `Cc1cc(-c2nc3n(c2-c2ccc4ncccc4c2)CCC3)c(F)cc1Cl` [Compound 255], the IC50 in the assay on TGF-β (setting [3]) and in the assay with GDF8 (setting [4]) was above 1000 nM throughout.
Take `COc1c(C)cc(-c2nc3n(c2-c2ccc4ncsc4c2)CCC3)cc1C` [Compound 257, 6-(2-(4-methoxy-3,5-dimethylphenyl)-6,7-dihydro-5H-pyrrolo[1,2-a]imidazol-3-yl)benzo[d]thiazole]: the IC50 in the assay with TGF-β (setting [3]) and in the assay with GDF8 (setting [4]) was above 1000 nM each time.
`COc1c(C)cc(-c2nc3n(c2-c2ccc4nccnc4c2)CCC3)cc1C` [Compound 258, 6-(2-(4-methoxy-3,5-dimethylphenyl)-6,7-dihydro-5H-pyrrolo[1,2-a]imidaol-3-yl)quinoxaline]: the IC50 in the assay on TGF-β (setting [3]) and in the assay with GDF8 (setting [4]) was above 1000 nM each time.
Take `COc1c(C)cc(-c2nc3n(c2-c2ccc4ncccc4c2)CCC3)cc1C` [Compound 259, 6-(2-(4-methoxy-3,5-dimethylphenyl)-6,7-dihydro-5H-pyrrolo[1,2-a]imidazol-3-yl)quinoline]: the IC50 in the assay on TGF-β (setting [3]) and in the assay with GDF8 (setting [4]) was above 1000 nM throughout.
Consider `Cc1c(-c2nc3n(c2-c2ccc4ncsc4c2)CCC3)ccc(F)c1F` [Compound 261, 6-(2-(3,4-difluoro-2-methylphenyl)-6,7-dihydro-5H-pyrrolo[1,2-a]imidazol-3-yl)benzo[d]thiazole], for which the IC50 is above 1000 nM in the assay with TGF-β (setting [3]) and 100 to 1000 nM in the assay with GDF8 (setting [4]).
`Cc1c(-c2nc3n(c2-c2ccc4nccnc4c2)CCC3)ccc(F)c1F` [Compound 262, 6-(2-(3,4-difluoro-2-methylphenyl)-6,7-dihydro-5H-pyrrolo[1,2-a]imidazol-3-yl)quinoxaline]: the IC50 in the assay with TGF-β (setting [3]) is above 1000 nM; in the assay with GDF8 (setting [4]) it was 100 to 1000 nM.
